Results reported in patent US4599331A, “Etianic acids as antiangiogenics” (Syntex (U.S.A.) Inc., priority 1984, dated 1986).

What was measured:
[1] = system: tyrosine aminotransferase (TAT); experiment: tyrosine aminotransferase (TAT) induction in HTC cells; assay type: cell-based, rat; settings: Rattus norvegicus, Table 1, 24 or 48 hours, from 10^-6 M down, relative to dexamethasone = 1, read-out: Efficacy (DEX = 1) TAT
Protocol: In this example, tyrosine aminotransferase (TAT) activity was determined by a spectrophotometric assay. This enzyme catalyzes the conversion of tyrosine to p-hydroxyphenylpyruvate. This example is a standard in vitro test for glucocorticoid activity.
Addition of base caused the conversion of p-hydroxyphenylpyruvate to p-hydroxybenzaldehyde, which was quantitatively measured by absorbance at 331 nm. HTC cells, the target cells for the compound tested were grown in DMEM+10% FCS. Subconfluent cell cultures were incubated with test compounds in 6 well Costar dishes for 24 or 48 hours. The cells were incubated in either serum-free DMEM or DMEM containing 10% FCS previously filtered over activated charcoal. The cells were harvested in PBS using a rubber policeman, then washed once in PBS by centrifugation and resuspended in a 0.3 ml lysis buffer of 10 mM Tris, 10 mM EDTA and 0.25M sucrose at pH 7.4. The cells were then lysed by three cycles of freeze-thawing using dry ice and a 37° C. waterbath and the cells debris was pelleted by centrifugation for 2 min at 12,000 9 in an Eppendorf centrifuge.
The supernatant was used for a protein determination using either E+K stain or BioRad protein assay kit and TAT activity. 0.1 ml TAT buffer having 50 mM KH2 PO4, 1 mM EDTA, 0.1 mM Dithiothereitol (DTT), and 5 mg/ml BSA at pH 7.6 and 0.1 ml cell extract were mixed in glass tubes. A prewarmed mixture of 200 parts of a 2.3 mg/ml tyrosine solution in 0.05M phosphate buffer, 100 parts 0.125M KH2 PO4, 10 parts of a 0.92 mg/ml and ketoglutarate solution and 1 part of a 0.04 mg/ml pyridoxalphosphate solution had been previously made up. […] of the prewarmed mixture was added to each tube and allowed to react at 37° C. for 15 min. The addition of 0.1 ml 7N […] stopped the reaction. The mixture was then immediately vortexed.
Aldehyde formation was allowed to proceed at 37° C. for 30 min. The amound of aldehyde formed was determined by UV spectroscopic means. Absorbance was read at 331 nm using a solution composed of 0.1 ml TAT buffer, 0.1 ml lysis buffer, 0.7 ml reaction mixture and 0.1 ml 7N KOH as a blank. Optical Density values are linearily corrected for protein content.
As the absolute amount of enzyme induction varies between experiments, results are expressed as percent of the maximal induction obtained with dexamethasone, which was run as a standard in each assay.
In this series, compounds were assayed from 10^-6 M down. Results are expressed in the TAT column of tables 1, and 2 as the induction ability of a compound as compared to dexamethasone; a compound may either be a partial inducer or a superinducer.

[2] = molecular target: T1, glucocorticoid receptor (Rattus norvegicus, UniProt P06536); experiment: competition for 3H-dexamethasone binding sites in HTC cytosol (glucocorticoid receptor affinity); settings: Table 1; displacement of 25 nM 3H-DEX, HTC (rat hepatoma) cytosol, 3 hours on ice
T1 construct: endogenous in cells; host or cells: HTC (rat hepatoma) cells, 100,000 x g cytosol
T1 sequence (P06536 1-795): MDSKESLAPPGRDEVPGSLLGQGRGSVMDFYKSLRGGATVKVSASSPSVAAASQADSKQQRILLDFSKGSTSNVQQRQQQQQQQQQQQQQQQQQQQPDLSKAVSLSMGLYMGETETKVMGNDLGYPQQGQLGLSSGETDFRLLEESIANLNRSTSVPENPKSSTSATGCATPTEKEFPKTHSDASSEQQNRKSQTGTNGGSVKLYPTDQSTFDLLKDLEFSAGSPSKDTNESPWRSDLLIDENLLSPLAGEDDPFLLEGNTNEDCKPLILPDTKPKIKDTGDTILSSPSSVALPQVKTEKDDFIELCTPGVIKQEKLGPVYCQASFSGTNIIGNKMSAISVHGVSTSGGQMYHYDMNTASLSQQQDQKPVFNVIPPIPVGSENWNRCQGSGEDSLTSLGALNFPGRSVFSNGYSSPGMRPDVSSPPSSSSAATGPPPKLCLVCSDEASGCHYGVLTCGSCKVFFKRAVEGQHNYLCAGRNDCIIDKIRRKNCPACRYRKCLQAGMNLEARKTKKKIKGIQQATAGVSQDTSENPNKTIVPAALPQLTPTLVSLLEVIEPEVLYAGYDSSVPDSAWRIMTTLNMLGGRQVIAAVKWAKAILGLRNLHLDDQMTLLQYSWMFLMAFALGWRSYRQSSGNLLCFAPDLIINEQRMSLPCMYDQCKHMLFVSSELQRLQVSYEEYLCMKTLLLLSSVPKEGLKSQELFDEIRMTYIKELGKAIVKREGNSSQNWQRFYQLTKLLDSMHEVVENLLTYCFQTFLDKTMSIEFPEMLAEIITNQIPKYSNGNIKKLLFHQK
Protocol: LE II (mouse lung capillary endothelial) or HTC (rat hepatoma) cells were grown in Dulbecco's modified Eagle's (DMEM) medium plus 10% fetal calf serum (FCS), in 150 cm^2 T-flasks. Approximately 20 flasks of LE II cells or 10 flasks of HTC cells were needed for a 60-80 sample assay.
Cell monolayers were washed 3 times with Phosphate Buffered Saline (PBS) and harvested by scraping with a rubber policeman into an ice-cold sonication buffer of 0.25M sucrose; 10 mM Tris-HCl, pH 7.4; 5 mM ethylenediaminetetraacetic acid (EDTA); 5 mM dithiothereitol; and 10 mM sodium molybdate. All subsequent steps were performed at 4° C. The cells were pooled into a final volume of 8-12 mls, broken by sonication for 45 seconds with the microtip of a Branson sonifier at setting #3 and the residue was then centrifuged at 100,000 X g for 30 minutes with a Beckman L8-50, Ti50 rotor, at 40,000 rpm. […] Incubations were peformed in a final volume of 1 ml in 1.5 ml Eppendorf centrifuge tubes for 3 hours on ice.
Fine Sephadex G-50 gel was swollen and equilibrated against column buffer of 100 mM Tris-HCl, pH 7.8; and 3 mM CaCl2. Columns were poured to a final packed volume of 4.5 ml in 5 ml plastic disposable pipets.
The packed columns were then drained of buffer and the 1 ml incubated samples were applied to each. The samples were washed into the columns with 0.5 ml of column buffer, and the exclusion volumes containing the protein peaks were eluted with another 1 ml of column buffer and collected. Aliquots of 750 μl of Biorad protein reagent were diluted 1:5 in H2 O. OD630 nm reading were compared with those obtained for a bovine serum albumin standard curve.

| SMILES | Emax [1] | IC50 [2] |
| --- | --- | --- |
| CCCC(=O)O[C@]1(C(=O)OC)[C@@H](C)C[C@H]2[C@@H]3CC(F)C4=CC(=O)C=C[C@]4(C)[C@@]3(F)[C@@H](O)C[C@@]21C (stereo partly drawn) [compound 4] | 100% | 0.25 nM |
| CCC(=O)O[C@]1(C(=O)OC)[C@@H](C)C[C@H]2[C@@H]3CCC4=CC(=O)C=C[C@]4(C)[C@@]3(F)[C@@H](O)C[C@@]21C [compound 1] | 100% | 5 nM |
| CCCC(=O)O[C@]1(C(=O)OC)[C@H](C)C[C@H]2[C@@H]3CC(F)C4=CC(=O)C=C[C@]4(C)[C@@]3(F)[C@@H](O)C[C@@]21C (stereo partly drawn) [compound 9] | 90% | 0.025 nM |
| CCC(=O)O[C@]1(C(=O)OC)[C@H](C)C[C@H]2[C@@H]3CC(F)C4=CC(=O)C=C[C@]4(C)[C@@]3(F)[C@@H](O)C[C@@]21C (stereo partly drawn) [compound 7] | 200% | 4 nM |
| CCC(=O)O[C@]1(C(=O)OC)[C@@H](C)C[C@H]2[C@@H]3CC(F)C4=C(F)C(=O)C=C[C@]4(C)[C@@]3(F)[C@@H](O)C[C@@]21C (stereo partly drawn) [compound 3] | 150% | 15 nM |
| CCC(=O)O[C@]1(C(=O)OC)[C@H](C)C[C@H]2[C@@H]3CC(F)C4=C(F)C(=O)C=C[C@]4(C)[C@@]3(F)[C@@H](O)C[C@@]21C (stereo partly drawn) [compound 8] | 100% | 0.25 nM |
